Each molecule was assayed against human VPS34 (Homo sapiens (Human), UniProt Q8NEB9) (assay: Human VPS34 enzyme assay (Adapta TR-FRET ADP detection)). Conditions: not given.
Assay type: biochemical
Parameters: Percent Inhibition: dose or concentration left out as unconfirmed

human VPS34, sequence (Q8NEB9 whole entry): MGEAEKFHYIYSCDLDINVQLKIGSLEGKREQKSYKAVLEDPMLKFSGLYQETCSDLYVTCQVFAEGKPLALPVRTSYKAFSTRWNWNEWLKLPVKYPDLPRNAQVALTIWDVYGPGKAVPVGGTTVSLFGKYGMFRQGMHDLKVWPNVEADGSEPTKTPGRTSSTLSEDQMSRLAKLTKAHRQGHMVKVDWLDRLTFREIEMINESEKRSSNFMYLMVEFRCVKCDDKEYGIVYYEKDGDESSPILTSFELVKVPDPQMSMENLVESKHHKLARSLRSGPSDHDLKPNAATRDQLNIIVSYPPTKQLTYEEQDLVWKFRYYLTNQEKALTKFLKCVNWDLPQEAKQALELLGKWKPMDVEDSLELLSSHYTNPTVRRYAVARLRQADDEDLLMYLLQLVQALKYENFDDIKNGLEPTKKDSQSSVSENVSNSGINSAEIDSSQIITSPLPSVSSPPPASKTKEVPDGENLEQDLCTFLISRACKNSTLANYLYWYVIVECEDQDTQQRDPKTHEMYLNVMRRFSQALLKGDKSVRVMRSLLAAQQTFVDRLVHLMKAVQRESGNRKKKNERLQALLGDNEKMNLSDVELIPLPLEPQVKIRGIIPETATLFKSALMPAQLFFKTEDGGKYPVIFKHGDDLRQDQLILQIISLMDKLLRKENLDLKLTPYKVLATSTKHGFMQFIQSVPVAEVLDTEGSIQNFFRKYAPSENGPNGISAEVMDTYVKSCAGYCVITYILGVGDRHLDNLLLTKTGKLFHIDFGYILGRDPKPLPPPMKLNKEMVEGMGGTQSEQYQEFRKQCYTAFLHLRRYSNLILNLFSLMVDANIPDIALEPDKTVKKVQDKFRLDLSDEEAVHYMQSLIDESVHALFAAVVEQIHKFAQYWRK

SMILES | Percent Inhibition [%]
Cc1ncc(-c2ccnc(NC(=O)C3CC3(F)F)c2)cc1NS(=O)(=O)c1ccc(F)cc1F (single isomer, unassigned) [Compound I-267b, N-(5-{[(2,4-difluorophenyl)sulfonyl]amino}-6-methyl-3,4′-bipyridin-2′-yl)-2,2-difluorocyclopropanecarboxamide] | 94
Cc1ncc(-c2ccnc(NC(=O)C3CC3(F)F)c2)cc1NS(=O)(=O)N(C)C (single isomer, unassigned) [Compound I-498] | 83
Cc1ncc(-c2ccnc(NC(=O)C3CC3(F)F)c2)cc1NS(=O)(=O)N(C)C (single isomer, unassigned) [Compound I-499] | >99
CNc1ncc(-c2ccnc(NC(C)=O)c2)cc1NS(=O)(=O)c1ccc(F)cc1F [Compound I-31, N-[5-{[(2,4-difluorophenyl)sulfonyl]amino}-6-(methylamino)-3,4′-bipyridin-2′-yl)acetamide] | >99

Same assay, conditions: IC50 range class

SMILES | IC50 [nM]
Cc1ncc(-c2ccnc(NC(=O)C3CC3(F)F)c2)cc1NS(=O)(=O)c1ccc(F)cc1F (racemic) [Compound I-16, (rac)-N-(5-{[(2,4-difluorophenyl)sulfonyl]amino}-6-methyl-3,4′-bipyridin-2′-yl)-2,2-difluorocyclopropanecarboxamide] | < 10
Cc1ncc(-c2ccnc(NC(=O)C3CC3(F)F)c2)cc1NS(=O)(=O)c1ccc(F)cc1F (single isomer, unassigned) [Compound I-267a, N-(5-{[(2,4-difluorophenyl)sulfonyl]amino}-6-methyl-3,4′-bipyridin-2′-yl)-2,2-difluorocyclopropanecarboxamide] | 10 to 50
Cc1ncc(-c2ccnc(NC(=O)C3CC3(F)F)c2)cc1NS(=O)(=O)c1ccc(F)cc1F (single isomer, unassigned) [Compound I-267b, N-(5-{[(2,4-difluorophenyl)sulfonyl]amino}-6-methyl-3,4′-bipyridin-2′-yl)-2,2-difluorocyclopropanecarboxamide] | 10 to 50
CC(=O)Nc1cc(-c2cnc(C)c(N3CC(N(C)C)CS3(=O)=O)c2)ccn1 (single isomer, unassigned) [Compound I-496, N-(5-(4-(dimethylamino)-1,1-dioxidoisothiazolidin-2-yl)-6-methyl-[3,4′-bipyridin]-2′-yl)acetamide] | 10 to 50
Cc1ncc(-c2ccnc(NC(=O)C3CC3(F)F)c2)cc1NS(=O)(=O)N(C)C (single isomer, unassigned) [Compound I-498] | 10 to 50
Cc1ncc(-c2ccnc(NC(=O)C3CC3(F)F)c2)cc1NS(=O)(=O)N(C)C (single isomer, unassigned) [Compound I-499] | 10 to 50
CC(=O)Nc1cc(-c2cnc(Cl)c(S(=O)(=O)NC(CO)c3ccccc3)c2)ccn1 (stereo in doubt) [Compound I-403, N-(6-chloro-5-{[(1R)-2-hydroxy-1-phenylethyl]sulfamoyl}-3,4′-bipyridin-2′-yl)acetamide] | > 100
CC(=O)Nc1cc(-c2cnc(C)c(NS(=O)(=O)c3ccc(C(F)(F)F)nc3)c2)ccn1 [Compound I-1] | < 10
CC(=O)Nc1cc(-c2cnc3cnn(S(=O)(=O)C4CC4)c3c2)ccn1 [Compound I-2, N-{4-[1-(cyclopropylsulfonyl)-1H-pyrazolo[4,3-b]pyridin-6-yl]pyridin-2-yl}acetamide] | 10 to 50
CC(=O)Nc1cc(-c2cnc(N)c(S(=O)(=O)Cc3ccc4ccccc4c3)c2)ccn1 [Compound I-3, N-{6-amino-5-[(2-naphthylmethyl)sulfonyl]-3,4′-bipyridin-2′-yl}acetamide] | 50 to 100
Cc1cnc(NC(=O)C2CC2)cc1-c1cnc(C)c(NS(=O)(=O)c2ccc(F)cc2F)c1 [Compound I-4, N-(5-{[(2,4-difluorophenyl)sulfonyl]amino}-5′,6-dimethyl-3,4′-bipyridin-2′-yl)cyclopropanecarboxamide] | 10 to 50
CC(=O)Nc1cc(-c2cnc(N)c(S(=O)(=O)Cc3ccccc3)c2)ccn1 [Compound I-6, N-[6-amino-5-(benzylsulfonyl)-3,4′-bipyridin-2′-yl]acetamide] | 10 to 50
CC(=O)Nc1cc(-c2cncc(C(=O)C3CC3)c2)ccn1 [Compound I-8, N-[5-(cyclopropylcarbonyl)-3,4′-bipyridin-2′-yl]acetamide] | > 100
CC(=O)Nc1cc(-c2cncc(S(=O)(=O)N3CCC(F)(F)CC3)c2)ccn1 [Compound I-9, N-{5-[(4,4-difluoropiperidin-1-yl)sulfonyl]-3,4′-bipyridin-2′-yl}acetamide] | 10 to 50
CC(=O)Nc1cc(-c2cnc(N)c(C(=O)N3CCCCC3)c2)ccn1 [Compound I-10, N-[6-amino-5-(piperidin-1-ylcarbonyl)-3,4′-bipyridin-2′-yl]acetamide] | < 10
CC(=O)Nc1cc(-c2cnc(N)c(S(=O)(=O)NC34CC(C3)C4)c2)ccn1 [Compound I-11, N-[6-amino-5-(bicyclo[1.1.1]pent-1-ylsulfamoyl)-3,4′-bipyridin-2′-yl]acetamide] | < 10
CC(=O)Nc1cc(-c2cncc(NS(=O)(=O)c3ccc(F)cc3F)c2)ccn1 [Compound I-12, N-(5-{[(2,4-difluorophenyl)sulfonyl]amino}-3,4′-bipyridin-2′-yl)acetamide] | < 10
CC(=O)Nc1cc(-c2cncc(NC(=O)c3ccccc3)c2)ccn1 [Compound I-13, N-(2′-acetamido-3,4′-bipyridin-5-yl)benzamide] | > 100
CC(=O)Nc1cc(-c2cnc(N)c(C(=O)NCC3CC3)c2)ccn1 [Compound I-14, 2′-acetamido-6-amino-N-(cyclopropylmethyl)-3,4′-bipyridine-5-carboxamide] | 10 to 50
CC(=O)Nc1cc(-c2cnc(N)c(C(=O)N3CCCC3)c2)ccn1 [Compound I-15, N-[6-amino-5-(pyrrolidin-1-ylcarbonyl)-3,4′-bipyridin-2′-yl]acetamide] | 10 to 50
CC(=O)Nc1cc(-c2cnc3cc[nH]c3c2)ccn1 [Compound I-17, N-[4-(1H-pyrrolo[3,2-b]pyridin-6-yl)pyridin-2-yl]acetamide] | 50 to 100

SMILES | IC50 [nM]
CC(=O)Nc1cc(-c2cnc(C)c(NS(=O)(=O)c3cn(C)nc3C(F)(F)F)c2)ccn1 [Compound I-18, N-[6-methyl-5-({[1-methyl-3-(trifluoromethyl)-1H-pyrazol-4-yl]sulfonyl}amino)-3,4′-bipyridin-2′-yl]acetamide] | < 10
CC(=O)Nc1cc(-c2cncc(N(C)S(C)(=O)=O)c2)ccn1 [Compound I-20, N-{5-[methyl(methylsulfonyl)amino]-3,4′-bipyridin-2′-yl}acetamide] | 50 to 100
CC(=O)Nc1cc(-c2cnc3c(c2)S(=O)(=O)N(C)CN3)ccn1 [Compound I-21, N-[4-(2-methyl-1,1-dioxido-3,4-dihydro-2H-pyrido[2,3-e][1,2,4]thiadiazin-7-yl)pyridin-2-yl]acetamide] | 10 to 50
CNc1ncc(-c2ccnc(NC(C)=O)c2)cc1C(=O)N(C)C [Compound I-22, 2′-acetamido-N,N-dimethyl-6-(methylamino)-3,4′-bipyridine-5-carboxamide] | 10 to 50
CC(=O)Nc1cc(-c2cnc3ccn(S(=O)(=O)c4ccccc4)c3c2)ccn1 [Compound I-23, N-{4-[1-(phenylsulfonyl)-1H-pyrrolo[3,2-b]pyridin-6-yl]pyridin-2-yl}acetamide] | < 10
CC(=O)Nc1cc(-c2cnc(N)c(S(=O)(=O)N3CCOCC3)c2)ccn1 [Compound I-24, N-[6-amino-5-(morpholin-4-ylsulfonyl)-3,4′-bipyridin-2′-yl]acetamide] | < 10
CC(=O)Nc1cc(-c2cnc(N(C)C)c(NS(=O)(=O)c3ccc(F)cc3F)c2)ccn1 [Compound I-25, N-[5-{[(2,4-difluorophenyl)sulfonyl]amino}-6-(dimethylamino)-3,4′-bipyridin-2′-yl]acetamide] | 10 to 50
CCN(c1cc(-c2ccnc(NC(C)=O)c2)cnc1C)S(=O)(=O)C1CC1 [Compound I-26, N-{5-[(cyclopropylsulfonyl)(ethyl)amino]-6-methyl-3,4′-bipyridin-2′-yl}acetamide] | 50 to 100
CCN(CC)C(=O)c1cc(-c2ccnc(NC(C)=O)c2)cnc1N [Compound I-27, 2′-acetamido-6-amino-N,N-diethyl-3,4′-bipyridine-5-carboxamide] | < 10
CC(=O)Nc1cc(-c2cnc(C)c(NS(=O)(=O)c3cc(C)ccc3F)c2)ccn1 [Compound I-28, N-(5-{[(2-fluoro-5-methylphenyl)sulfonyl]amino}-6-methyl-3,4′-bipyridin-2′-yl)acetamide] | < 10
CC(=O)Nc1cc(-c2cnc3c(c2)N(CC2CC2)S(=O)(=O)N3)ccn1 [Compound I-29, N-{4-[1-(cyclopropylmethyl)-2,2-dioxido-1,3-dihydro[1,2,5]thiadiazolo[3,4-b]pyridin-6-yl]pyridin-2-yl}acetamide] | 10 to 50
CC(=O)Nc1cc(-c2cnc(C)c(NS(=O)(=O)c3ccc(Cl)cc3Cl)c2)ccn1 [Compound I-30, N-(5-{[(2,4-dichlorophenyl)sulfonyl]amino}-6-methyl-3,4′-bipyridin-2′-yl)acetamide] | < 10
CNc1ncc(-c2ccnc(NC(C)=O)c2)cc1NS(=O)(=O)c1ccc(F)cc1F [Compound I-31, N-[5-{[(2,4-difluorophenyl)sulfonyl]amino}-6-(methylamino)-3,4′-bipyridin-2′-yl)acetamide] | 10 to 50
CC(=O)Nc1cc(-c2cnc3ccn(S(C)(=O)=O)c3c2)ccn1 [Compound I-33, N-{4-[1-(methylsulfonyl)-1H-pyrrolo[3,2-b]pyridin-6-yl]pyridin-2-yl}acetamide] | 10 to 50
COC(=O)Nc1cc(-c2cnc(N)c(S(=O)(=O)C(C)C)c2)ccn1 [Compound I-34, methyl [6-amino-5-(isopropylsulfonyl)-3,4′-bipyridin-2′-yl]carbamate] | < 10
CC(=O)Nc1cc(-c2cnc(N)c(NCC3CC3)c2)ccn1 [Compound I-35, N-{6-amino-5-[(cyclopropylmethyl)amino]-3,4′-bipyridin-2′-yl}acetamide] | 10 to 50
COC(=O)Nc1cc(-c2cnc(N)c(S(=O)(=O)N3CCCC3)c2)ccn1 [Compound I-36, methyl [6-amino-5-(pyrrolidin-1-ylsulfonyl)-3,4′-bipyridin-2′-yl]carbamate] | < 10
CC(=O)Nc1cc(-c2cnc(N)c(S(=O)(=O)N(C)c3ccccc3)c2)ccn1 [Compound I-37, N-{6-amino-5-[methyl(phenyl)sulfamoyl]-3,4′-bipyridin-2′-yl}acetamide] | < 10
COC(=O)Nc1cc(-c2cnc3[nH]ncc3c2)ccn1 [Compound I-38, Methyl [4-(1H-pyrazolo[3,4-b]pyridin-5-yl)pyridin-2-yl]carbamate] | 10 to 50
COc1ncc(-c2ccnc(NC(C)=O)c2)cc1S(=O)(=O)Nc1ccccc1 [Compound I-39, N-[6-methoxy-5-(phenylsulfamoyl)-3,4′-bipyridin-2′-yl]acetamide] | < 10
CC(=O)Nc1cc(-c2cnc3[nH]cc(S(=O)(=O)N(C)C)c3c2)ccn1 [Compound I-40, N-{4-[3-(dimethylsulfamoyl)-1H-pyrrolo[2,3-b]pyridin-5-yl]pyridin-2-yl}acetamide] | < 10

Reference: patent publication US9751854B2 (Millennium Pharmaceuticals, Inc., priority 2014, dated 2017)
